The target in one assay is T1, Adenosine receptor A1 (Homo sapiens, UniProt P30542).
T1 sequence (P30542 whole entry): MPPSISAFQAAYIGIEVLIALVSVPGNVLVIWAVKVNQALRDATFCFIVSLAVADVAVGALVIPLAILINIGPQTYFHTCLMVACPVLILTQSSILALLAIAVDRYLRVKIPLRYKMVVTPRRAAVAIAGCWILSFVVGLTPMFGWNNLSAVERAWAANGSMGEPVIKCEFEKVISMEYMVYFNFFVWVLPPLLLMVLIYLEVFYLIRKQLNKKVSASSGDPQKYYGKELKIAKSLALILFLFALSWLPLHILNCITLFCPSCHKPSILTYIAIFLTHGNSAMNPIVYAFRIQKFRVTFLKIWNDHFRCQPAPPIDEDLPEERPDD

Assay [1] deals with Glutamate receptor ionotropic, NMDA 1 (Rattus norvegicus, UniProt P35439).
In assay [2] the target is 5-hydroxytryptamine receptor 2B (Homo sapiens, UniProt P41595). In kind it is functional, cell-based.
The target in the next assay is T2, Glucocorticoid receptor (Homo sapiens, UniProt P04150).
T2 sequence (P04150 whole entry): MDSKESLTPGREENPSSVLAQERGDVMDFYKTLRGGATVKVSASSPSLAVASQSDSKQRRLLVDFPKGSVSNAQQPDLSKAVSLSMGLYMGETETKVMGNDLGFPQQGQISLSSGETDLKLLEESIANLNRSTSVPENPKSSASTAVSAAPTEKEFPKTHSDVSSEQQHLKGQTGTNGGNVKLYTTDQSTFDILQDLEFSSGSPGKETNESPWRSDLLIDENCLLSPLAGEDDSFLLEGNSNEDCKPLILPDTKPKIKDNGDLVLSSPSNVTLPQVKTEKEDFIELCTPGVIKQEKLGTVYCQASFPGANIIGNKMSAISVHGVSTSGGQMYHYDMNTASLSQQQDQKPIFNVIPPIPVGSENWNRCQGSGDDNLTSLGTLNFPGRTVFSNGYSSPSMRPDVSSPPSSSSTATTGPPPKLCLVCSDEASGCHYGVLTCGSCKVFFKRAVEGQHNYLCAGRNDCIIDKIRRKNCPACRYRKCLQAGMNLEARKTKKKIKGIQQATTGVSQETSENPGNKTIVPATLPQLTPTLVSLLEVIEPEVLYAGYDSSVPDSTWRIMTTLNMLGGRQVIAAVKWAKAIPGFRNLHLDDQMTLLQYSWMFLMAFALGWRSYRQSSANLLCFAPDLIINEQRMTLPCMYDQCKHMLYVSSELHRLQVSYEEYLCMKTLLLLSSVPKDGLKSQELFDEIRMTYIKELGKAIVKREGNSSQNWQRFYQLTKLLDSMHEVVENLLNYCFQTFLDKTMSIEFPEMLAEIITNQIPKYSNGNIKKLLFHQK

The next assay has as its target T3, Progesterone receptor (Homo sapiens, UniProt P06401).
T3 sequence (P06401 whole entry): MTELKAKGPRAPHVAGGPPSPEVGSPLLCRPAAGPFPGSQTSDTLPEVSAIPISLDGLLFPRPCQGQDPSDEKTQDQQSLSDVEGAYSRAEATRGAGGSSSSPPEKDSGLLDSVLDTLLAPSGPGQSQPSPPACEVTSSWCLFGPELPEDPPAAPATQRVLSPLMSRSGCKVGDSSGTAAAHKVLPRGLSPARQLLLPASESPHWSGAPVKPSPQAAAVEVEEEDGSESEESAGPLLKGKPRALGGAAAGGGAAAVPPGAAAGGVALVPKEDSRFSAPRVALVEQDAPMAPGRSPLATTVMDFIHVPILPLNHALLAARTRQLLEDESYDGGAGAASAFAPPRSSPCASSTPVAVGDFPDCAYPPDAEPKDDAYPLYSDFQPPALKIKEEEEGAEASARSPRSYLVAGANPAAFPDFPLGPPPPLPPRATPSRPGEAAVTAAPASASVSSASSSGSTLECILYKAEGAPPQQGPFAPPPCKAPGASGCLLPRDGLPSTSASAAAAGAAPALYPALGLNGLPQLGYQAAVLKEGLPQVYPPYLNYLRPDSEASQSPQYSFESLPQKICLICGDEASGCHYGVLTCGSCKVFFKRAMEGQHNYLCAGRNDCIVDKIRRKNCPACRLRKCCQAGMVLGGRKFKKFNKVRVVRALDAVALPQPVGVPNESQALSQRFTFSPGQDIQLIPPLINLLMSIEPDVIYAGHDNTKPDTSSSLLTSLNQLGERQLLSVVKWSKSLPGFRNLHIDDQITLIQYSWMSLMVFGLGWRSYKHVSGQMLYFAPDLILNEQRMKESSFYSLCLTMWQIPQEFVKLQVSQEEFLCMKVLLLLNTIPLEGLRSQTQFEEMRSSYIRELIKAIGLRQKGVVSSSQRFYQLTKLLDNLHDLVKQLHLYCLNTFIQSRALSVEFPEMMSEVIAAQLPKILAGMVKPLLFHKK
The format is functional.

The target of another assay is Histamine H3 receptor (Homo sapiens, UniProt Q9Y5N1).
Assay [3] concerns the target T4, Alpha-1A adrenergic receptor (Homo sapiens, UniProt P35348).
T4 sequence (P35348 whole entry): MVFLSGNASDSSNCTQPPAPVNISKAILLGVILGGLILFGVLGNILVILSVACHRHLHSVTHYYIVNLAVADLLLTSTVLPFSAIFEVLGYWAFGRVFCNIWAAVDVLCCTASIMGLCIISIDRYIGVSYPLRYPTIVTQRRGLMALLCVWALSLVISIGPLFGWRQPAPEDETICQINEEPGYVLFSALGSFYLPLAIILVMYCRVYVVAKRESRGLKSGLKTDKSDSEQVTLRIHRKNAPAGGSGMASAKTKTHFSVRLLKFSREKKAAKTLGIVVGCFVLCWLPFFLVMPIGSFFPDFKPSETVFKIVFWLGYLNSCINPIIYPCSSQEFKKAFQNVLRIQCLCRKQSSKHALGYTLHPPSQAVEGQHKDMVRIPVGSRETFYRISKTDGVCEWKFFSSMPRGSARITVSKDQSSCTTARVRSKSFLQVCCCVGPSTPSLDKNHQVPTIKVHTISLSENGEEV
In kind it is functional, cell-based.
Note: assay procedure not described here.

Chain of Histamine H3 receptor (Q9Y5N1 whole entry): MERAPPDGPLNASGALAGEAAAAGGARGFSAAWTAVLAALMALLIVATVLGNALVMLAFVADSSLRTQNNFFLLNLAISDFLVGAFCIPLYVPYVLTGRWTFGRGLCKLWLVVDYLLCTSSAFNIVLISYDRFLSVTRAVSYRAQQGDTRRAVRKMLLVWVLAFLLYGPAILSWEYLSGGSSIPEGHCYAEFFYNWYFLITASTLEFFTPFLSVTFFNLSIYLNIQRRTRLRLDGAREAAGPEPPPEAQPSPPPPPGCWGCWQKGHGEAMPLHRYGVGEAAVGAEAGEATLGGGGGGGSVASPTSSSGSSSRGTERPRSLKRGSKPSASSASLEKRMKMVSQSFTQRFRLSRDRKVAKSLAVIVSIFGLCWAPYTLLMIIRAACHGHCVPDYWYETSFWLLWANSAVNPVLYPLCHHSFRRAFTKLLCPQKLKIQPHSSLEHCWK
Chain of 5-hydroxytryptamine receptor 2B (P41595 whole entry): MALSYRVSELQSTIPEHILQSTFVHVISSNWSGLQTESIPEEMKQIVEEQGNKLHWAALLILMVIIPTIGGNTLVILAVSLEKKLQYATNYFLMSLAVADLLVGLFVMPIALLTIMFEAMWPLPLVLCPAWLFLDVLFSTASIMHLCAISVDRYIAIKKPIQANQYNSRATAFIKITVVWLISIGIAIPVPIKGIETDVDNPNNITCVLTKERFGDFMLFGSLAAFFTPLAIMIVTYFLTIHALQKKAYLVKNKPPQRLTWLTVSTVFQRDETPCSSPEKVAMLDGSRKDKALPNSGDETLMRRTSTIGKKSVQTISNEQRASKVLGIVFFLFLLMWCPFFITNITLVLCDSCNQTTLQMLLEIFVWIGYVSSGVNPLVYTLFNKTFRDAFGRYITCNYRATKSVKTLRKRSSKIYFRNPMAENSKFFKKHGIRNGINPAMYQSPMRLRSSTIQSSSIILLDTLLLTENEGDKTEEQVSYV

One may read the AC50 as the concentration at which the activity in the assay is half-maximal. Read a low AC50 as greater potency. Turning to `COc1cc2c(cc1OC)C(CCc1ccc(Cl)cc1)N(C)CC2` (stereo unspecified) [METHOPHOLINE], the AC50 is > 30 µM on Adenosine receptor A1; > 10 µM in assay [1]; > 10 µM in assay [2]; > 30 µM at Glucocorticoid receptor; > 30 µM on Progesterone receptor; > 30 µM on Histamine H3 receptor.
Turning to `O=C(O)CCNC(=O)c1ccccc1` [BETAMIPRON], the half-maximal activity concentration (AC50) (on Adenosine receptor A1; in assay [1]; in assay [2]; on Glucocorticoid receptor; at Progesterone receptor; in assay [3]) was > 30 µM in each case. Moreover, the concentration at half-maximal activity (AC50) on Histamine H3 receptor was > 30 µM.
On to `NC1CCN(c2nc3c(cc2F)c(=O)c(C(=O)O)cn3-c2ccc(F)cc2F)C1` (stereo unspecified) [TOSUFLOXACIN], for which the half-maximal activity concentration (AC50) (at Adenosine receptor A1; in assay [1]; in assay [2]; at Glucocorticoid receptor; on Progesterone receptor; in assay [3]) was > 30 µM throughout. Further, the AC50 at Histamine H3 receptor was > 30 µM.
For the compound `C[N@+]1(CCF)[C@@H]2CC[C@H]1C[C@@H](OC(=O)C(O)(c1ccccc1)c1ccccc1)C2`, the half-maximal activity concentration (AC50) (on Adenosine receptor A1; in assay [1]; in assay [2]; on Glucocorticoid receptor; on Progesterone receptor; in assay [3]) was > 30 µM each time. For the same compound, the AC50 at Histamine H3 receptor is > 30 µM.
Take `O=C1CN=C(c2ccccc2)c2cc([N+](=O)[O-])ccc2N1` [NITRAZEPAM]: the AC50 (on Adenosine receptor A1; in assay [1]; in assay [2]; at Glucocorticoid receptor; on Progesterone receptor) was > 10 µM each time.
In the case of `CN(C(=O)c1c(O)c2ccccc2n(C)c1=O)c1ccccc1` [ROQUINIMEX], the concentration at half-maximal activity (AC50) (on Progesterone receptor; in assay [3]) was > 30 µM each time.
Turning to `OCc1cc(C(O)CNCCCCCCOCCCCc2ccccc2)ccc1O` (stereo unspecified) [SALMETEROL], the half-maximal activity concentration (AC50) at Adenosine receptor A1 is > 30 µM; in assay [1] it was > 10 µM; in assay [2] it was 12 µM; at Glucocorticoid receptor, > 30 µM; on Progesterone receptor, > 30 µM; on Histamine H3 receptor it was > 10 µM.
With `CC(=O)SC[C@@H](C)C(=O)N1CCC[C@H]1C(=O)N[C@@H](Cc1ccccc1)C(=O)O`, the half-maximal activity concentration (AC50) (on Adenosine receptor A1; in assay [1]; in assay [2]; on Progesterone receptor; in assay [3]; at Histamine H3 receptor) was > 30 µM throughout.
As to `Nc1cc(-c2ccncc2)c[nH]c1=O` [INAMRINONE], the AC50 on Adenosine receptor A1 is > 30 µM; in assay [1], > 10 µM; in assay [2], > 10 µM; at Glucocorticoid receptor it was > 30 µM; in assay [3] it was > 30 µM; on Histamine H3 receptor it was > 10 µM.
Take `CCN(CC)CCN1C(=O)CN=C(c2ccccc2F)c2cc(Cl)ccc21` [FLURAZEPAM]: the AC50 was > 30 µM on Adenosine receptor A1; > 10 µM in assay [1]; > 10 µM in assay [2]; > 30 µM at Glucocorticoid receptor; > 30 µM in assay [3]; > 10 µM at Histamine H3 receptor.
As for `CC(=O)[C@]1(O)Cc2c(O)c3c(c(O)c2[C@@H](O[C@H]2C[C@H](N)[C@H](O)[C@H](C)O2)C1)C(=O)c1ccccc1C3=O` [IDARUBICIN], the AC50 at Adenosine receptor A1 is > 10 µM; in assay [1], > 30 µM; at Glucocorticoid receptor, 0.11 µM; on Progesterone receptor, 5.8 µM; on Histamine H3 receptor, > 30 µM.
On to `C/C(=C\C(=O)OCCCCCCCCC(=O)O)C[C@@H]1OC[C@H](C[C@@H]2O[C@H]2[C@@H](C)[C@H](C)O)[C@@H](O)[C@H]1O` [MUPIROCIN], for which the AC50 (on Adenosine receptor A1; in assay [1]; in assay [2]; at Glucocorticoid receptor; on Progesterone receptor; at Histamine H3 receptor) was > 10 µM each time.
For the compound `Cc1ncc2n1-c1ccc(Cl)cc1C(c1ccccc1F)=NC2` [MIDAZOLAM], the half-maximal activity concentration (AC50) at Adenosine receptor A1 was > 30 µM; in assay [1] it was > 10 µM; in assay [2] it was > 10 µM; on Glucocorticoid receptor, > 30 µM; in assay [3] it was > 30 µM; on Histamine H3 receptor, > 10 µM.
As to `CC(=O)[C@@]1(O)CC[C@H]2[C@@H]3C=C(Cl)C4=CC(=O)[C@@H]5C[C@@H]5[C@]4(C)[C@H]3CC[C@@]21C` [CYPROTERONE], the AC50 on Adenosine receptor A1 is > 10 µM; in assay [1], > 10 µM; in assay [2], > 10 µM; on Progesterone receptor, 0.003 µM.
In the case of `COc1cc2ncnc(Nc3ccc(F)c(Cl)c3)c2cc1NC(=O)/C=C/CN1CCCCC1` [DACOMITINIB ANHYDROUS], the AC50 (at Progesterone receptor; in assay [3]) was > 30 µM each time.
As for `C#CCOc1ccc(N)cc1C(=O)NCCCC` [PARSALMIDE], the AC50 (at Adenosine receptor A1; in assay [1]; in assay [2]; at Glucocorticoid receptor; on Progesterone receptor; at Histamine H3 receptor) was > 30 µM in each case.
In the case of `CCN1CCCC1CNC(=O)c1cc(S(=O)(=O)CC)c(N)cc1OC` (stereo unspecified) [AMISULPRIDE], the half-maximal activity concentration (AC50) is > 30 µM on Adenosine receptor A1; > 30 µM in assay [1]; > 30 µM on Glucocorticoid receptor; > 30 µM at Progesterone receptor; 12 µM at Histamine H3 receptor.
`CC(=O)OCC(=O)[C@@]1(O)[C@H](C)C[C@H]2[C@@H]3CCC4=CC(=O)C=C[C@]4(C)[C@@]3(F)[C@@H](O)C[C@@]21C` [DEXAMETHASONE ACETATE]: the AC50 at Adenosine receptor A1 was > 30 µM; in assay [1] it was > 10 µM; in assay [2], > 10 µM; in assay [3], > 30 µM; on Histamine H3 receptor it was > 10 µM.
With `Cn1c(=O)cc(N2CCC[C@@H](N)C2)n(Cc2ccccc2C#N)c1=O` [ALOGLIPTIN], the AC50 on Adenosine receptor A1 was > 30 µM; in assay [1], > 10 µM; at Glucocorticoid receptor, > 30 µM; at Histamine H3 receptor, > 10 µM.
Take `O=C1CN=C(c2ccccn2)c2cc(Br)ccc2N1` [BROMAZEPAM]: the AC50 (on Adenosine receptor A1; in assay [1]; in assay [2]; on Glucocorticoid receptor; on Progesterone receptor) was > 10 µM each time.

The values are drawn from ChEMBL document CHEMBL5291721, “A preclinical secondary pharmacology resource illuminates target-adverse drug reaction associations of marketed drugs” (Nat Commun, 2023).
